Experimental data from patent US9365522B2, “Pyrazole amide derivative” (AMGEN INC., priority 2015, dated 2016).

Target: T1, ligand binding domain of human ROR gamma (Homo sapiens, UniProt P51449)
T1 construct: NM_001001523; expressed in transfected cells; host or cells: HEK293T
T1 sequence (P51449 247-497 isoform P51449-2): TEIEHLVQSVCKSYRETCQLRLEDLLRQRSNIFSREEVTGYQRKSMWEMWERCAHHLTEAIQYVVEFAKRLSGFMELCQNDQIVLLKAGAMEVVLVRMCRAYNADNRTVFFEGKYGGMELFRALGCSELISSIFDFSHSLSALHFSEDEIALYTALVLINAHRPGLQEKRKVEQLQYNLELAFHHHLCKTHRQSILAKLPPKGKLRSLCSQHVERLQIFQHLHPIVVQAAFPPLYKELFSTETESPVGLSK
Assay: ROR gamma reporter gene assay (GAL4-RORγ LBD luciferase, Dual-Glo)
Format: cell-based
Settings: HEK293T cells transfected with pM-ROR gamma, 8 concentrations 3.5 nM to 10.5 μM, 24 h incubation; for IC50: read-out: result (pIC50, inhibition of RORγ transcriptional activity) (converted)
Summary of the method: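 HEK293T cells co-transfected with GAL4-DBD fused to human RORγ LBD (aa 247-497), 5×UAS firefly luciferase reporter and CMV-renilla, in charcoal-stripped serum.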

| Structure (SMILES) | IC50 [pM] | result (pIC50, inhibition of RORγ transcriptional activity) |
| --- | --- | --- |
| N[C@]1(C(=O)O)CC[C@@H](n2ncc(C(=O)N(CC(=O)c3c(Cl)cncc3Cl)Cc3ccc(F)cc3)c2C(F)(F)F)CC1 [Example 116, cis-4-(4-((2-(3,5-dichloropyridin-4-yl)-2-oxoethyl)-((4-fluorophenyl)methyl)carbamoyl)-5-(trifluoromethyl)pyrazol-1-yl)-1-aminocyclohexane-1-carboxylic acid] | > 1e+07 | – |
| CC(C)(C)OCCN(CC(=O)c1c(Cl)cc(Cl)cc1Cl)C(=O)c1cnn([C@H]2CC[C@](C)(C(=O)O)CC2)c1C(F)(F)F [Example 293, trans-1-methyl-4-(4-(2-((2-methylpropan-2-yl)oxy)ethyl-(2-oxo-2-(2,4,6-trichlorophenyl)ethyl)carbamoyl)-5-(trifluoromethyl)pyrazol-1-yl)cyclohexane-1-carboxylic acid] | 33100 | – |
| CC(C)(C)OCCN(CC(=O)c1c(Cl)cncc1Cl)C(=O)c1cnn([C@H]2CC[C@H](C(=O)O)CC2)c1C(F)(F)F [Example 95, trans-(4((2-(3,5-dichloropyridin-4-yl)-2-oxoethyl)-(2-((2-methylpropan-2-yl)oxy)ethyl)carbamoyl)-5-(trifluoromethyl)pyrazol-1-yl)cyclohexane-1-carboxylic acid] | 151000 | – |
| COc1cncc(OC)c1C(=O)CN(Cc1cc(F)cc(F)c1)C(=O)c1cnn([C@H]2CC[C@H](C(=O)O)CC2)c1C(F)(F)F [Example 119, trans-4-(4-((3,5-difluorophenyl)methyl-(2-(3,5-dimethoxypyridin-4-yl)-2-oxoethyl)carbamoyl)-5-(trifluoromethyl)pyrazol-1-yl)cyclohexane-1-carboxylic acid] | 1.51e+06 | – |
| CC1(C)CCC(N(CC(=O)c2c(Cl)cc(F)cc2Cl)C(=O)c2cnn([C@H]3CC[C@@](C)(C(=O)O)CC3)c2C(F)(F)F)CC1 [Example 301, cis-4-(4-((2-(2,6-dichloro-4-fluorophenyl)-2-oxoethyl)-(4,4-dimethylcyclohexyl)carbamoyl)-5-(trifluoromethyl)pyrazol-1-yl)-1-methylcyclohexane-1-carboxylic acid] | 186000 | – |
| CC(C)(C)CN(CC(=O)c1c(Cl)cncc1Cl)C(=O)c1cnn([C@H]2CC[C@](C)(C(=O)O)CC2)c1C#N [Example 310, trans-4-(5-cyano-4-((2-(3,5-dichloropyridin-4-yl)-2-oxoethyl)-(2,2-dimethylpropyl)carbamoyl)pyrazol-1-yl)-1-methylcyclohexane-1-carboxylic acid] | > 1.05e+07 | – |
| COc1cccc(OC)c1C(=O)CN(Cc1cc(F)cc(F)c1)C(=O)c1cnn([C@H]2CC[C@H](C(=O)O)CC2)c1C(F)(F)F [Example 111, trans-4-(4-((3,5-difluorophenyl)methyl-(2-(2,6-dimethoxyphenyl)-2-oxoethyl)carbamoyl)-5-(trifluoromethyl)pyrazol-1-yl)cyclohexane-1-carboxylic acid] | 355000 | – |
| O=C(O)C1CCC(n2ncc(C(=O)N(CCc3c(Cl)cncc3Cl)Cc3ccc(F)cc3)c2C(F)(F)F)CC1 (stereo not shown) [Example 24, 4-(4-((2-(3,5-dichloropyridin-4-yl)ethyl)(4-fluorobenzyl)carbamoyl)-5-(trifluoromethyl)-1H-pyrazol-1-yl)cyclohexanecarboxylic acid] | 166000 | – |
| CC1(C)[C@@H]2C[C@H](N(C[C@@H](O)c3sccc3Cl)C(=O)c3cnn([C@H]4CC[C@](C)(C(=O)O)CC4)c3C(F)(F)F)C[C@@H]21 [Example 397, trans-4-(4-((2-(3-chlorothiophen-2-yl)-2-hydroxyethyl)((1R,3r,5S)-6,6-dimethylbicyclo[3.1.0]hexan-3-yl)carbamoyl)-5-(trifluoromethyl)-1H-pyrazol-1-yl)-1-methylcyclohexanecarboxylic acid] | 61700 | – |
| CC(C)(C)CN(CC(=O)c1c(Cl)cncc1Cl)C(=O)c1cnn(C2CCC(C)(C(=O)O)CC2)c1Cl (stereo not drawn) [Example 276, trans-4-(5-chloro-4-((2-(3,5-dichloropyridin-4-yl)-2-oxoethyl)-(2,2-dimethylpropyl)carbamoyl)pyrazol-1-yl)-1-methylcyclohexane-1-carboxylic acid] | – | 6.91 |
| CC1(C)[C@@H]2C[C@H](N(CC(=O)c3c(Cl)cncc3Cl)C(=O)c3cnn([C@H]4CC[C@H](C(=O)O)CC4)c3C(F)(F)F)C[C@@H]21 [Example 264, trans-4-(4-((2-(3,5-dichloropyridin-4-yl)-2-oxoethyl)-((1R,3r,5S)-6,6-dimethyl-3-bicyclo[3.1.0]hexanyl)carbamoyl)-5-(trifluoromethyl)pyrazol-1-yl)cyclohexane-1-carboxylic acid] | 8130 | – |
| O=C(CN(Cc1ccc(F)cc1)C(=O)c1cnn([C@H]2CC[C@@](F)(C(=O)O)CC2)c1C(F)(F)F)c1c(Cl)cncc1Cl [Example 80, trans-4-(4-((2-(3,5-dichloropyridin-4-yl)-2-oxoethyl)(4-fluorobenzyl)carbamoyl)-5-(trifluoromethyl)-1H-pyrazol-1-yl)-1-fluorocyclohexanecarboxylic acid] | 661000 | – |
| O=C(CN(Cc1cc(F)cc(F)c1)C(=O)c1cnn([C@H]2CC[C@H](C(=O)NO)CC2)c1C(F)(F)F)c1c(Cl)cncc1Cl [Example 5, N-(2-(3,5-dichloropyridin-4-yl)-2-oxoethyl)-N-(3,5-difluorobenzyl)-1-(trans-4-(hydroxycarbamoyl)cyclohexyl)-5-(trifluoromethyl)-1H-pyrazole-4-carboxamide] | 209000 | – |
| CC1(C)[C@@H]2C[C@H](N(CC(=O)c3c(Cl)cncc3Cl)C(=O)c3cnn([C@H]4CC[C@](C)(C(=O)O)CC4)c3Cl)C[C@@H]21 [Example 367, trans-4-(5-chloro-4-((2-(3,5-dichloropyridin-4-yl)-2-oxoethyl)((1R,3r,5S)-6,6-dimethylbicyclo[3.1.0]hexan-3-yl)carbamoyl)-1H-pyrazol-1-yl)-1-methylcyclohexanecarboxylic acid] | 30200 | – |
| O=C(CN(CC(F)(F)F)C(=O)c1cnn([C@H]2CC[C@H](C(=O)O)CC2)c1C(F)(F)F)c1c(Cl)cncc1Cl [Example 75, trans-4-(4-((2-(3,5-dichloropyridin-4-yl)-2-oxoethyl)(2,2,2-trifluoroethyl)carbamoyl)-5-(trifluoromethyl)-1H-pyrazol-1-yl)cyclohexanecarboxylic acid] | 316000 | – |
| O=C(CN(Cc1ccc(F)cc1)C(=O)c1cnn([C@H]2CC[C@H](C(=O)NCCO)CC2)c1C(F)(F)F)c1c(Cl)cncc1Cl [Example 89, N-(2-(3,5-dichloropyridin-4-yl)-2-oxoethyl)-N-(4-fluorobenzyl)-1-(trans-4-((2-hydroxyethyl)carbamoyl)cyclohexyl)-5-(trifluoromethyl)-1H-pyrazole-4-carboxamide] | 1.38e+06 | – |
| CC1(C)CCC(N(CC(=O)c2c(Cl)cc(Cl)cc2Cl)C(=O)c2cnn(C34CCC(C(=O)O)(CC3)CC4)c2C(F)(F)F)CC1 [Example 231, 4-(4-((4,4-dimethylcyclohexyl)-(2-oxo-2-(2,4,6-trichlorophenyl)ethyl)carbamoyl)-5-(trifluoromethyl)pyrazol-1-yl)bicyclo[2.2.2]octane-1-carboxylic acid] | 10700 | – |
| CC1(C)[C@@H]2C[C@H](N(C[C@@H](O)c3ncccc3Cl)C(=O)c3cnn([C@H]4CC[C@](C)(C(=O)O)CC4)c3C(F)(F)F)C[C@@H]21 [Example 391, trans-4-(4-((2-(3-chloropyridin-2-yl)-2-hydroxyethyl)((1R,3r,5S)-6,6-dimethylbicyclo[3.1.0]hexan-3-yl)carbamoyl)-5-(trifluoromethyl)-1H-pyrazol-1-yl)-1-methylcyclohexanecarboxylic acid] | 141000 | – |
| O=C(CN(Cc1ccc(F)cc1)C(=O)c1cnn([C@H]2CC[C@@](O)(C(=O)O)CC2)c1C(F)(F)F)c1c(Cl)cncc1Cl [Example 106, trans-4-(4-((2-(3,5-dichloropyridin-4-yl)-2-oxoethyl)-((4-fluorophenyl)methyl)carbamoyl)-5-(trifluoromethyl)pyrazol-1-yl)-1-hydroxycyclohexane-1-carboxylic acid] | 380000 | – |
| CC1(C)CC(CN(CC(=O)c2c(Cl)cc(F)cc2Cl)C(=O)c2cnn(C34CCC(C(=O)O)(CC3)CC4)c2C(F)(F)F)C1 [Example 266, 4-(4-((2-(2,6-dichloro-4-fluorophenyl)-2-oxoethyl)-((3,3-dimethylcyclobutyl)methyl)carbamoyl)-5-(trifluoromethyl)pyrazol-1-yl)bicyclo[2.2.2]octane-1-carboxyIic acid] | 5370 | – |
| CC(C)CC1(N(CC(=O)c2c(Cl)cncc2Cl)C(=O)c2cnn([C@H]3CC[C@](C)(C(=O)O)CC3)c2C(F)(F)F)CC1 [Example 319, trans-4-(4-((2-(3,5-dichloropyridin-4-yl)-2-oxoethyl)-(1-(2-methylpropyl)cyclopropyl)carbamoyl)-5-(trifluoromethyl)pyrazol-1-yl)-1-methylcyclohexane-1-carboxylic acid] | 141000 | – |
| O=C(CN(CC1CC2(CC2)C1)C(=O)c1cnn([C@H]2CC[C@H](C(=O)O)CC2)c1C(F)(F)F)c1c(Cl)cncc1Cl [Example 200, trans-4-(4-((2-(3,5-dichloropyridin-4-yl)-2-oxoethyl)-(spiro[2.3]hexan-5-ylmethyl)carbamoyl)-5-(trifluoromethyl)pyrazol-1-yl)cyclohexane-1-carboxylic acid] | 15800 | – |
